# Source: patent publication US20120142730A1 (priority 2010, published 2012)
# Tested on: subjects with relapsing remitting multiple sclerosis (RRMS)
# Test: ALLEGRO phase III trial: MRI endpoints (lesions, brain volume, MTR, 1H-MRS)
# Assay type: in vivo, human
# Design: key to BA from M12 to M24: percent change of brain volume (SIENA); Change in average MTR of T2 visible lesions / T2 volume / Hypointense T1 volume / GdE volume: unit not given here
# Details: for BA at month 12, reduction / BA (brain atrophy, percent brain volume change) at month 12: baseline to 12 months
# Procedure: Eligible subjects were equally randomized 1:1 into one of the following treatment arms: • 1. […] 21, 2007 (see, page 10, line 5 to page 11, line 3). • 2. Matching placebo for laquinimod arm: one capsule is administered once daily. MRI related secondary endpoints were the cumulative number of GdE lesions at months 12 and 24; and the cumulative number of new T2 lesions (relative to previous scan) at months 12 and 24; MRI exploratory endpoints included percent change of brain volume using SIENA.^10 Additional MRI methodological details are as follows: In all patients, MRI scans were performed at 0, 12, and 24 months. Before a site could enrol study participants they were required to image a volunteer patient with definite MS twice with repositioning according to a strict study imaging protocol using scanners with a minimum field strength of 1.5T. Fast/turbo spin echo (repetition time [TR]=2200-3500 ms, echo time [TE]=14-50/90-120 ms, echo train length=2-7, slice thickness=3 mm, and contiguous axial slices= • 44) sequences were used to obtain proton density and T2-weighted images. High resolution pre-contrast 3D T1-weighted sequences (TR=8-15 ms, TE=3-5 ms, inversion time=1.1 s, number of slices 160, slice thickness 1.2 mm, flip angle [FA]=10-15, orientation sagittal) were acquired for quantification of brain atrophy. Finally, T1-weighted images (1.5 T scanners: conventional spin echo sequence; TR=600-650 ms, TE=10-20 ms, slice thickness=3 mm, and contiguous axial slices=44; 3.0 T scanners: 3D sequence; TR=5-9 ms, TE=2-5 ms, FA=15, slice thickness=3 mm, and contiguous axial slices=44) were obtained 5 minutes after injection of 0.1 mmol/kg of gadolinium. A series of axial, coronal, and sagittal images was obtained to create an axial reference scan for subsequent careful repositioning of each patient at the follow-up session. Axial slices were positioned to run parallel to a line joining the most inferioanterior and inferioposterior parts of the corpus callosum. Image quality was reviewed at the MRI-AC using predetermined criteria. The identification of GdE and T2-hyperintense lesions was done by consensus of two experienced observers. The number of total and new GdE lesions and new/enlarging T2-hyperintense lesions were counted. The identified lesions were then outlined by trained technicians using a semiautomated segmentation technique based on local thresholding (Jim 4.0; […] System, Leicester, UK) and lesion volumes were calculated automatically. Percentage brain volume changes and cross-sectional normalized brain volumes were measured on […] T1-weighted images, with Structural Image Evaluation of Normalized Atrophy (SIENA) software and a cross-sectional method ([…]) (available from the FMRIB Software Library, Oxford University, Oxford, UK; http://www.fmrib.ox.ac.uk/analysis/research/[…]). Analyses of the secondary MRI endpoints of the cumulative number of GdE and new/enlarging T2 lesions at 12 and 24 months involved a baseline-adjusted negative binomial regression with an “offset” employing the log of the relative exposure to adjust for early-terminated patients. The model included as covariates the number of enhancing lesions at baseline, and country or geographical region. In the case of new/enlarging T2 lesion analysis, the baseline T2 lesion volume was also added. […] The analysis of the brain atrophy endpoint involved a baseline-adjusted analysis of covariance (ANCOVA). The covariates were the number of GdE lesions at baseline and the country or region. The exploratory endpoints were all analyzed at a significance level of 5%. Secondary endpoints of the ALLEGRO trial included disease activity as measured by MRI, including counts of Gadolinium enhancing T1 lesions and new-T2 hyperintense lesions. […] Conventional MRI scans for new T1 hypointense lesions, and brain volume using SIENA were performed at baseline, 12 and 24 months. […]
# [1] = 0.6 mg daily oral vs placebo, listed as laquinimod
# [2] = 0.6 mg daily oral, listed as laquinimod
# [3] = post-hoc, not naïve, vs placebo
compound,measurement,setting,value
"CCN(C(=O)c1c(O)c2c(Cl)cccc2n(C)c1=O)c1ccccc1 [Laquinimod, laquinimod]","Cumulative new Hypointense T1 lesions months 12 + 24, mean",0.6 mg daily oral,1.468
same,"Cumulative number of GdE lesions at months 12 and 24, mean",0.6 mg daily oral,1.332
same,"Cumulative number of GdE lesions at months 12 and 24, median",0.6 mg daily oral,0.00
same,"Cumulative number of new/enlarging T2 lesions at 12 and 24 months, mean",0.6 mg daily oral,5.032
same,"Cumulative new Hypointense T1 lesions months 12 + 24, reduction",0.6 mg daily oral vs placebo,27% reduction
same,"Cumulative number of new/enlarging T2 lesions at 12 and 24 months, reduction",0.6 mg daily oral vs placebo,30% reduction
same,"Percent change of brain volume baseline to month 24, reduction in brain atrophy",0.6 mg daily oral vs placebo,32.8% reduction
same,"Percent change of brain volume from baseline to month 24, adjusted mean difference",0.6 mg daily oral vs placebo,0.426
same,"BA at month 12, reduction",0.6 mg daily oral vs placebo,53% reduction
same,"BA at month 12, reduction",[1],51.7%
same,"Cumulative new Hypointense T1 lesions months 12 + 24, reduction",[1],26.7%
same,"Cumulative number of new/enlarging T2 lesions at 12 and 24 months, reduction",[1],30%
same,"Percent change of brain volume baseline to month 24, reduction in brain atrophy",[1],32.8%
same,"Percent change of brain volume from baseline to month 24, adjusted mean change","0.6 mg daily oral, SIENA",−0.871%
same,"BA (brain atrophy, percent brain volume change) at month 12",0.6 mg daily oral,−0.358%
same,"BA (brain atrophy, percent brain volume change) at month 12",[2],−0.358%
same,"Cumulative new Hypointense T1 lesions months 12 + 24, mean",[2],1.47
same,Adjusted mean change in NAA/Cr from baseline to month 24,"1H-MRS subgroup, n=12",0.087
same,Change in average MTR of T2 visible lesions,"MT MRI subgroup, n=43",−0.005
same,Change in mean MTR whole brain from baseline to last observed value (LOV),"MT MRI subgroup, n=44",+0.045
same,"Change in mean MTR whole brain baseline to LOV, difference from placebo","MT MRI subgroup, p=0.0180",0.483
same,"Change in average MTR of T2 visible lesions, difference from placebo","MT MRI subgroup, p=0.1007",0.330
same,"Hypointense T1 volume, change BL to M24",baseline to month 24,7%^
same,"T2 volume, change BL to M24",baseline to month 24,11.5%^
same,Hypointense T1 volume,month 12,2.805
same,T2 volume,month 12,8.005
same,"Hypointense T1 volume, effect","month 12, vs placebo",~1%
same,"T2 volume, effect","month 12, vs placebo",5%
same,Hypointense T1 volume,month 24,2.829
same,T2 volume,month 24,8.111
same,"Hypointense T1 volume, effect","month 24, vs placebo",~1%
same,"T2 volume, effect","month 24, vs placebo",5%
same,"BA for pts with all scans, change BL to M12",post-hoc,−0.337
same,"BA for pts with all scans, change BL to M24",post-hoc,−0.855
same,BA from M12 to M24,post-hoc,−0.548
same,% BV change M24,"post-hoc, GdE = 0",−0.859%
same,"% BV change M24, reduction","post-hoc, GdE = 0, vs placebo",30% reduction
same,% BV change M24,"post-hoc, GdE > 0",−0.881%
same,"% BV change M24, reduction","post-hoc, GdE > 0, vs placebo",37% reduction
same,GdE counts,"post-hoc, M12",0.731
same,GdE lesion free,"post-hoc, M12",69% ^
same,GdE volume,"post-hoc, M12",1.058
same,New T2 lesion #,"post-hoc, M12",2.81
same,New-T1 Hypointense Lesions,"post-hoc, M12",1.074
same,T1 Hypointense Lesion free,"post-hoc, M12",56.3% ^
same,T2 lesion free,"post-hoc, M12",30.8% ^
same,"GdE counts, reduction","post-hoc, M12, vs placebo",36% reduction
same,"GdE lesion free, effect on odds","post-hoc, M12, vs placebo",49% odds
same,"GdE volume, effect","post-hoc, M12, vs placebo",4.5%
same,"New T2 lesion #, effect","post-hoc, M12, vs placebo",33.5%
same,"New-T1 Hypointense Lesions, reduction","post-hoc, M12, vs placebo",27% reduction
same,"T1 Hypointense Lesion free, effect on odds","post-hoc, M12, vs placebo",28% odds
same,"T2 lesion free, effect on odds","post-hoc, M12, vs placebo",39% odds
same,GdE counts,"post-hoc, M24",0.482
same,GdE lesion free,"post-hoc, M24",74.5% ^
same,GdE volume,"post-hoc, M24",1.045
same,New T2 lesion #,"post-hoc, M24",4.45
same,New-T1 Hypointense Lesions,"post-hoc, M24",1.230
same,T1 Hypointense Lesion free,"post-hoc, M24",52.8% ^
same,T2 lesion free,"post-hoc, M24",20.3% ^
same,"GdE counts, reduction","post-hoc, M24, vs placebo",39% reduction
same,"GdE lesion free, effect on odds","post-hoc, M24, vs placebo",72% odds
same,"GdE volume, effect","post-hoc, M24, vs placebo",4.7%
same,"New T2 lesion #, effect","post-hoc, M24, vs placebo",31.5%
same,"New-T1 Hypointense Lesions, reduction","post-hoc, M24, vs placebo",32% reduction
same,"T1 Hypointense Lesion free, effect on odds","post-hoc, M24, vs placebo",47% odds
same,"T2 lesion free, effect on odds","post-hoc, M24, vs placebo",40% odds
same,% BVC BL to M24,"post-hoc, MRI free NO",−1.001%
same,"% BVC BL to M24, effect","post-hoc, MRI free NO, vs placebo",65.5%
same,% BVC BL to M24,"post-hoc, MRI free YES",−0.533%
same,"% BVC BL to M24, effect","post-hoc, MRI free YES, vs placebo",45.5%
same,% BV change by previous medications,"post-hoc, naïve",−0.82%
same,Cum # T1 GdE by previous medications,"post-hoc, naïve",1.135
same,Cum New T2 by previous medications,"post-hoc, naïve",4.967
same,T1 hypointense by previous medications,"post-hoc, naïve",1.585
same,"% BV change by previous medications, reduction","post-hoc, naïve, vs placebo",38% reduction
same,"Cum # T1 GdE by previous medications, reduction","post-hoc, naïve, vs placebo",42% reduction
same,"Cum New T2 by previous medications, reduction","post-hoc, naïve, vs placebo",33% reduction
same,"T1 hypointense by previous medications, reduction","post-hoc, naïve, vs placebo",28% reduction
same,Cum # T1 GdE by previous medications,"post-hoc, not naive",1.746
same,"Cum # T1 GdE by previous medications, reduction","post-hoc, not naive, vs placebo",32% reduction
same,% BV change by previous medications,"post-hoc, not naïve",−0.954%
same,Cum New T2 by previous medications,"post-hoc, not naïve",5.075
same,T1 hypointense by previous medications,"post-hoc, not naïve",1.217
same,"% BV change by previous medications, reduction",[3],23% reduction
same,"Cum New T2 by previous medications, reduction",[3],24% reduction
same,"T1 hypointense by previous medications, reduction",[3],25% reduction
same,"BA for pts with all scans, change BL to M12, effect","post-hoc, vs placebo",60%
same,"BA for pts with all scans, change BL to M24, effect","post-hoc, vs placebo",57%
